Assay results reported in PMC3124589 (Biochimica et biophysica acta, 2011).
“Also recorded” adds a separate entry of the source. Like-named read-outs stand apart in the source and are kept apart here.

Columns and labels:
mtDAPDC [1] = molecular target: T1, mtDAPDC (Mycobacterium tuberculosis, UniProt P9WIU7); experiment: Inhibition assay for mtDAPDC, coupled carbon dioxide assay; type: biochemical
mtDAPDC [2] = molecular target: T1, mtDAPDC; experiment: HPLC assay for reaction of mtDAPDC with alternate substrates; type: biochemical; conditions: reaction 25 °C, 12–16 hours; OPA derivatization
mtDAPDC [3] = molecular target: T1, mtDAPDC; experiment: Steady-state coupled carbon dioxide assay, mtDAPDC; type: biochemical; conditions: for kcat / Km: errors in parentheses; for Km: meso-DAP value corrected for the 50% D,L-DAP present
yeast ODC = conditions: read-out: concentration necessary for 50% inhibition; cited from earlier work
S. cerevisiae ODC = S. cerevisiae ODC (Saccharomyces cerevisiae, UniProt P08432); experiment: biochemical
S. cerevisiae ODC, sequence (P08432 whole entry): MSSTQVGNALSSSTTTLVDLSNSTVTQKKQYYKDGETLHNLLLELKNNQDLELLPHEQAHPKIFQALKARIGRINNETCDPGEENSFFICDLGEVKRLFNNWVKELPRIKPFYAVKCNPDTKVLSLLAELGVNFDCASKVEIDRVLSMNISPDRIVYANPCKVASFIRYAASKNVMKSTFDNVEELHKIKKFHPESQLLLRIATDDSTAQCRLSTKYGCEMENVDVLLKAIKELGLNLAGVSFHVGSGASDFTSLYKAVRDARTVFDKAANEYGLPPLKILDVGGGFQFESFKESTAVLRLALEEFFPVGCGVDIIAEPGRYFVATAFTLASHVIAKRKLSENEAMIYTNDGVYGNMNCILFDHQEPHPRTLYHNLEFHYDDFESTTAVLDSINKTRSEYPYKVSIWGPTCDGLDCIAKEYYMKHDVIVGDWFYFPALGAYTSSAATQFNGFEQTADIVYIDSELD

[4] = D,L-DAP held at Km (400 μM), competitive inhibition assumed (eq 1)

T1 sequence (P9WIU7 whole entry, looked up): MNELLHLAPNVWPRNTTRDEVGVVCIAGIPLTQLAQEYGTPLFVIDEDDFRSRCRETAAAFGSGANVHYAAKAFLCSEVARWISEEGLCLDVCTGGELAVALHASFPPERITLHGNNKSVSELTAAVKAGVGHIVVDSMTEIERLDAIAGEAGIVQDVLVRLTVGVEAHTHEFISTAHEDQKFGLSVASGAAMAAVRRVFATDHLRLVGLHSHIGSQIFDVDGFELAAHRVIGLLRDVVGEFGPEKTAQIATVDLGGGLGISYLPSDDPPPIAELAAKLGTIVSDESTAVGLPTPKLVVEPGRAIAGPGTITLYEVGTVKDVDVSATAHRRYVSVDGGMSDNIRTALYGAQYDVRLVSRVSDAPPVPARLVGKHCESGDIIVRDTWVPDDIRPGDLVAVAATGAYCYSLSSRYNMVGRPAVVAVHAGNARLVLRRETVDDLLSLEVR

Structure (SMILES) | decarboxylation detected by HPLC (mtDAPDC [2]) | kcat (mtDAPDC [3]) | Km (mtDAPDC [3]) | Ki (mtDAPDC [1]; [4]) | other results
NCCCC[C@H](N)C(=O)O [L-lysine] | no detectable amounts of their decarboxylation products | – | – | – | Ki (mtDAPDC [1]): 1800 µM
N[C@H](CCC[C@@H](N)C(=O)O)C(=O)O [D,D-DAP] | decarboxylated | 1.8 (0.3) s^−1 | 17 mM | – | inhibition of the D,L-DAP reaction (mtDAPDC [1]; at concentrations of 6 mM (data not shown)): no detectable inhibition; kcat less than with the natural substrate (mtDAPDC [3]; relative to D,L-DAP): 4 fold; kcat/KM lower than D,L-DAP (mtDAPDC [3]; relative to D,L-DAP): ~ 100 fold
NCCCC[C@@H](N)C(=O)O [D-lysine] | decarboxylated | – | – | 26000 µM | –
NCCCCN [putrescine] | – | – | – | – | IC50 (yeast ODC): 100 µM; Ki (S. cerevisiae ODC): 250 ± 45 µM
NC(CCCC(N)C(=O)O)C(=O)O [L,L-DAP] | no detectable amounts of their decarboxylation products; also recorded: not decarboxylated | – | – | 1600 µM | binding weaker than D,L-DAP (mtDAPDC [1]; Ki compared with Km of D,L-DAP): ~ 4 fold
N[C@@H](CCC[C@H](N)C(=O)O)C(=O)O [D,L-DAP, D,L-diaminopimelate] | – | 7.1 (0.1) s^−1 | 0.43 mM | – | –
